Molecules are shown by their SMILES.

The values below come from the METLIN SMRT retention time set (Domingo-Almenara et al. 2019).

This data set is described as follows: gradient 5% acetonitrile 3 min, to 50% in 2 min, to 85% in 15 min, held 3 min, 100 µL/min. As to conditions: column: Zorbax Extend-C18 2.1 x 50 mm; eluents: water / acetonitrile, 0.1% formic acid. In short, it runs like this: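 Values are retention times taken from adduct peaks that software picked and an analyst inspected. The pure standards were run as mixtures of ~100 molecules on HPLC linked to a quadrupole time-of-flight mass spectrometer, in positive and negative ionization mode. A Zorbax Extend-C18 column (2.1 × 50 mm, 1.8 μm) was used at 100 μL/min with water and acetonitrile, each including 0.1% formic acid.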
In turn, `COC(=O)C1=CN(c2cccc(OC)c2)c2cc(Br)ccc2S1(=O)=O` gave an RP-LC retention time of 942 s.

The compound `Cn1nccc1-c1cccc(-c2noc(CNC(=O)Cc3ccc(Cl)cc3)n2)c1` displayed an RP-LC retention time of 871 s.

Regarding `COc1ccccc1CNC(=O)CSc1ccc(-c2ccccn2)nn1`, the RP-LC retention time amounted to 713 s.

As to `COc1cc(C(O)c2nc3ccccc3s2)cc(OC)c1OC` (stereo unspecified), the RP-LC retention time came out at 826 s.

`COCCCNC(=O)C1c2cc(OC)c(OC)cc2C(=O)N(C)C1c1ccc(OC)cc1` (stereo unspecified) returned an RP-LC retention time of 685 s.

With `Cc1ccc(-c2cn3cccnc3n2)cc1NC(=O)CC1CCCCC1`, the RP-LC retention time came out at 720 s.

`CC(C(=O)NCCN1CCOCC1)C1CCN(C(=O)c2cc3cc(Cl)ccc3[nH]2)CC1` (stereo unspecified) returned an RP-LC retention time of 589 s.

In turn, `Cc1cc(Cl)ccc1NC(=O)N1CCN(C2=CC3=NCC(C)N3C=N2)CC1` (stereo unspecified) had an RP-LC retention time of 814 s.

Regarding `O=C(NCCS(=O)(=O)N1CCN(c2ncccn2)CC1)c1cc2ccccc2o1`, the RP-LC retention time stood at 727 s.

`Cc1ccc(N2CCC(NC(=O)Nc3ccc4c(c3)OCCO4)C2=O)cc1C` (stereo unspecified) displayed an RP-LC retention time of 798 s.

As for `CCn1ccc2c(cc(C(=O)Nc3cc(OC)c(OC)c(OC)c3)n2C)c1=O`, the RP-LC retention time worked out at 715 s.

Compound `COc1ccccc1-c1cc2c(=O)n(Cc3nc(-c4cccc(F)c4)no3)ccn2n1` came in with an RP-LC retention time of 1040 s.

In the case of `CCOC(=O)Nc1ccccc1NC(=O)OCC`, the RP-LC retention time stood at 717 s.

The compound `CCn1cc(-c2ccc(C)cc2)cc1C(=O)NCC1CCCO1` (stereo unspecified) gave an RP-LC retention time of 614 s.

In turn, `COc1ccc(C2C(C(=O)NCCCN3CCOCC3)c3cc(OC)c(OC)cc3C(=O)N2C)cc1` (stereo unspecified) gave an RP-LC retention time of 612 s.

`CCN1CCCCc2cc(C(=O)N(C)CCN(C)C)sc21` showed an RP-LC retention time of 638 s.

For the compound `CC(CCNC(=O)c1ccc2ccnc(N3CCN(c4ccc(F)cc4)CC3)c2c1)N1CCCC1` (stereo unspecified), the RP-LC retention time was found to be 597 s.

Compound `Cc1cc(-c2ccc3c(c2)CCN3C(=O)Cc2ccc(F)cc2)on1` gave an RP-LC retention time of 1000 s.

As to `Cc1nn2c(CNC(=O)c3ccc(C)c(C)c3)c(C)nc2s1`, the RP-LC retention time was determined as 650 s.

The compound `CN1CCN(c2ccc(NC(=O)C(C)(C)C)c(C(=O)O)c2)CC1` gave an RP-LC retention time of 601 s.

Consider `CCc1nc(-c2ccc3c(c2)CCN3C(=O)COc2ccc(OC)cc2)no1`, for which the RP-LC retention time was 1000 s.

Turning to `Cc1c(Cl)cccc1NC(=O)c1cccc([N+](=O)[O-])c1O`, the RP-LC retention time was found to be 975 s.

In the case of `COc1cccc2cc(C(=O)NCC3CCN(C(=O)c4snnc4C)CC3)oc12`, the RP-LC retention time came out at 697 s.

In turn, `CCOc1ccc(OCC)c(NC(=O)CSc2nccnc2Oc2ccccc2)c1` came in with an RP-LC retention time of 1190 s.

As for `Cc1ccc(S(=O)(=O)N2CCCC(CCC(=O)NC3CCCCC3)C2)cc1` (stereo unspecified), the RP-LC retention time was 956 s.

Consider `CCC(C)NC(=O)NC1CCN(C2=NS(=O)(=O)C(c3cccc(Cl)c3)=C2C)CC1` (stereo unspecified), for which the RP-LC retention time is 814 s.

For the compound `O=C(Nc1ccc(F)cc1)N1CCCC1c1nc(-c2ccc(F)cc2F)no1` (stereo unspecified), the RP-LC retention time is 934 s.

As for `CS(=O)(=O)N1CCC(OC2CCN(C(=O)NCc3cccc(F)c3)CC2)CC1`, the RP-LC retention time came to 730 s.

Compound `C=C(C)CSc1nnc(-c2ccc(OC)cc2)o1` yielded an RP-LC retention time of 1030 s.

In the case of `COC(=O)c1ccc(C(=O)NCC2(O)CCOCC2)cc1`, the RP-LC retention time is 584 s.

Take `CC(C)c1cc(C(=O)Nc2ccc(Cl)cc2)nc2ccnn12`: the RP-LC retention time was found to be 1060 s.

In turn, `CCC1CN2C=NC(N3CCN(C(=O)Nc4ccc(SC)cc4)CC3)=CC2=N1` (stereo unspecified) yielded an RP-LC retention time of 655 s.

Take `CC(C)NC(=O)CN1C(=O)CSc2ccc(C(=O)N3CCCCC3)cc21`: the RP-LC retention time worked out at 673 s.

For the compound `CCCc1ccc(C(=O)CC2(O)C(=O)Nc3ccccc32)cc1` (stereo unspecified), the RP-LC retention time came out at 831 s.

Consider `O=S1(=O)C[C@H](N2CCN(c3ccccn3)CC2)[C@@H](S(=O)(=O)c2ccc(F)cc2)C1`, for which the RP-LC retention time was 1040 s.

The compound `CCCNc1nc(-c2cccc(Cl)c2)cs1` showed an RP-LC retention time of 1020 s.

In turn, `CCC(=C(c1ccccc1)c1ccc(OCCN(C)C)cc1)c1ccccc1` displayed an RP-LC retention time of 1010 s.

As for `CCOc1cc(C(=O)Nc2c(-c3ccc(OC)cc3)nc3cc(C)ccn23)cc(OCC)c1OCC`, the RP-LC retention time worked out at 803 s.

`CNC(=O)c1ccc(-c2nc3cc(NS(=O)(=O)c4ccc(F)cc4F)ccc3n2C)cc1` came in with an RP-LC retention time of 645 s.

For `Cc1cc(NC(=O)c2cn(C)nc2S(=O)(=O)N2CCSCC2)ccc1F`, the RP-LC retention time was 960 s.

On to `COc1ccc(S(=O)(=O)N2CCCC(C(=O)Nc3ccc4c(c3)OCO4)C2)cc1OC` (stereo unspecified), for which the RP-LC retention time was found to be 838 s.

Turning to `O=C(CCc1csc2nc(C3CC3)cn12)Nc1nc2ccccc2s1`, the RP-LC retention time stood at 594 s.

`COc1ccc(CCc2nc3nccc(-c4ccc(OC)cc4)n3n2)cc1`: the RP-LC retention time stood at 943 s.

The compound `CCn1cc(C(=O)Nc2ccccc2C)c2cccnc21` came in with an RP-LC retention time of 791 s.

Take `COc1ccc(NC(=O)CSc2cc(C)nc(-c3cnccn3)n2)cc1Cl`: the RP-LC retention time amounted to 757 s.

On to `C=CCNC(=O)c1cnn(-c2cc(-c3nc(C(C)C)no3)ccn2)c1C`, for which the RP-LC retention time worked out at 776 s.

Compound `COc1ccc(C2Cn3nnc(-c4nc(-c5ccc(OCc6ccccc6)cc5)no4)c3CO2)cc1` (stereo unspecified) displayed an RP-LC retention time of 1340 s.

Take `Cc1sc(NC(=O)c2ccccc2Cl)nc1-c1ccc2c(c1)N(C)C(=O)CO2`: the RP-LC retention time was found to be 968 s.

For the compound `CCCN(CC1CC1)C(=O)CCC[C@@H]1[C@H]2CCCN3CCC[C@@H](CN1C(C)=O)[C@@H]23`, the RP-LC retention time worked out at 618 s.

For the compound `COc1ccc(CCNC(=O)Cn2cnc(C)cc2=O)cc1OC`, the RP-LC retention time is 574 s.

For `O=C(CSc1ccc(-c2ccc3c(c2)OCO3)nn1)c1cccs1`, the RP-LC retention time came to 854 s.

`COc1ccccc1C(=O)NC1(C(F)(F)F)C(=O)N(CC2CCCO2)C2=C1C(=O)CC(C)(C)C2` (stereo unspecified) came in with an RP-LC retention time of 986 s.

`CCc1nc(-c2csc(S(=O)(=O)N3CCC(C(=O)NCc4ccc(Cl)cc4)CC3)c2)no1` had an RP-LC retention time of 994 s.

In the case of `c1ccc(N2CCN(Cc3nc(-c4ccc(N5CCOCC5)nc4)no3)CC2)cc1`, the RP-LC retention time came to 772 s.

Consider `COc1ccc(NC(=O)Cn2c(N3CCCC3)nc(C)cc2=O)c(OC)c1`, for which the RP-LC retention time came out at 626 s.

Consider `COC(=O)c1cccc(-c2nc(C3CC(=O)N(c4ccc(Cl)cc4)C3)no2)c1` (stereo unspecified), for which the RP-LC retention time was found to be 1030 s.

Compound `COc1ccc(-c2c(C)noc2NC(C)=O)cc1S(=O)(=O)Nc1ccc(F)cc1F` gave an RP-LC retention time of 743 s.

`O=C(NCCC(c1ccccc1)c1ccccc1)c1cnc2sccn2c1=O` returned an RP-LC retention time of 847 s.

In turn, `Cn1nccc1C(=O)NCc1ccc(-c2nc(-c3ccccc3)no2)s1` came in with an RP-LC retention time of 932 s.

`O=C(Nc1ccccc1-n1cccc1)c1cn(-c2ccc(F)cc2)nn1` showed an RP-LC retention time of 845 s.

`COc1ccccc1CNC1CCN(c2ccc(C(=O)NC3CC3)cn2)C1` (stereo unspecified) showed an RP-LC retention time of 552 s.

`Cc1ccc(N2CCC(NC(=O)c3ccc(F)c(F)c3)C2=O)cc1C` (stereo unspecified): the RP-LC retention time turned out to be 918 s.

For the compound `c1ccc(OCc2nc(-c3ccc4c(c3)ncn4CCN3CCCCC3)no2)cc1`, the RP-LC retention time amounted to 652 s.

In turn, `COc1ccc(-c2cc(=O)n3c4ccccc4n(CC(=O)NCc4ccco4)c3n2)cc1` gave an RP-LC retention time of 855 s.

In turn, `Cc1ccc(-c2cc(C(=O)NCCC3=CCCCC3)c(C)[nH]2)cc1C` came in with an RP-LC retention time of 1120 s.

Compound `Cc1ccc2c(c1)N(S(C)(=O)=O)CCC(C(=O)Nc1ccccc1C)O2` (stereo unspecified) had an RP-LC retention time of 894 s.

Compound `CCN(CC)CCOc1ccccc1/C=C/c1noc2ccccc12` showed an RP-LC retention time of 724 s.

`CC(C(=O)N1CCC(N2CCc3ccccc32)CC1)c1ccccc1` (stereo unspecified) had an RP-LC retention time of 1010 s.

`COCc1cn(C2CN(C(=O)c3ccc(OC)cc3OC)C2)nn1` gave an RP-LC retention time of 622 s.

`CC(C)OCCCNC(=O)COc1ccccc1-c1nnc(-c2ccccc2)o1` had an RP-LC retention time of 631 s.

Take `CCNC(=O)NC1CCN(c2ccc(C)cc2)C1=O` (stereo unspecified): the RP-LC retention time came out at 671 s.

In turn, `O=C(Cn1c(=O)n(-c2ccc(F)cc2)c2ncccc21)NCCCN1CCOCC1` yielded an RP-LC retention time of 804 s.

The compound `O=C1CSc2ccc(S(=O)(=O)N3CCN(c4ccccn4)CC3)cc2N1` gave an RP-LC retention time of 604 s.

For the compound `CN(C1CCc2nn(CC3CC3)c(=O)n2CC1)S(=O)(=O)c1cccnc1` (stereo unspecified), the RP-LC retention time worked out at 659 s.

For `COC(=O)CNC(=O)N1CCN(Cc2ccc(C)cc2)c2ncccc21`, the RP-LC retention time turned out to be 651 s.

As to `Cc1ccc(-n2c(C)c(C)c3c(=O)n(CC(=O)NC4CC4)cnc32)cc1`, the RP-LC retention time came to 769 s.

`O=C1NCCCCCCN(C(=O)c2cnccn2)[C@H]2CCC[C@@H]12` gave an RP-LC retention time of 632 s.

`Cc1cccc(Nc2cc(C)nc3ccnn23)c1` displayed an RP-LC retention time of 613 s.

Consider `CCS(=O)(=O)Nc1ccc2nc(N3CCN(c4ccc(OC)cc4)CC3)cc(C(=O)O)c2c1`, for which the RP-LC retention time worked out at 626 s.

`O=C(NCc1ccccc1Cl)C1=C2CCCN2c2ccc(F)cc2S1(=O)=O` registered an RP-LC retention time of 913 s.

In turn, `Cc1ccc(C2=NC3(CCN(C(=O)c4ccc(C(C)(C)C)cc4)CC3)ON2)cc1` came in with an RP-LC retention time of 975 s.
